Values quoted from earlier work in patent US7045126B2, “Histone deacetylase-8 proteins, nucleic acids, and methods for use” (Applera Corporation, priority 1999, dated 2006).

Key:
cell cycle = details: variety of systems
[1] = test system: acute promyelocytic leukemia (APL); details: incl. retinoic acid resistant forms
tumor = tumor bearing nude mice

## CC(/C=C/C(=O)NO)=C\[C@@H](C)C(=O)c1ccc(N(C)C)cc1 [trichostatin A]
Cell cycle
  cell cycle arrest and/or differentiation: induce cell cycle arrest and/or differentiation

## CCCC(=O)[O-].[Na+] [sodium butyrate]
[1]
  therapeutic use to target transcription in APL: successful even in retinoic acid resistant forms of the disease

## Nc1ccccc1NC(=O)c1ccc(CNC(=O)OCc2cccnc2)cc1 [MS-27275]
histones
  histone hyperacetylation: induces histone hyperacetylation
tumor
  inhibition of tumor growth: demonstrates efficacy in inhibiting tumor growth
